Reference: the supplement of paper PMC11451515

Test system: P12-Ichikawa
Test: cell viability relative to DMSO control; higher = less cytotoxic
Conditions: 48 h
Method in brief: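 NOMO1 or SEM (500 cells/well) or P12-Ichikawa (1000 cells/well) leukemia cells were adapted for at least four passages in each medium. They were seeded in 1536-well plates (5 μl) and pin-dosed with library compounds in DMSO over an 11-point threefold series, 47 μM to 0.79 nM. CellTiter-Glo One luminescence was read after 48 h at 37°C. Viability is the per-plate percentage relative to DMSO wells, with cell-free wells as background.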

[1] = HPLM + 10% dialyzed FBS, 0.000781 µM
[2] = HPLM + 10% dialyzed FBS, 0.00234 µM
[3] = HPLM + 10% dialyzed FBS, 0.00702 µM
[4] = HPLM + 10% dialyzed FBS, 0.0211 µM
[5] = HPLM + 10% dialyzed FBS, 0.0632 µM
[6] = HPLM + 10% dialyzed FBS, 0.19 µM
[7] = HPLM + 10% dialyzed FBS, 0.569 µM
[8] = HPLM + 10% dialyzed FBS, 1.71 µM
[9] = HPLM + 10% dialyzed FBS, 5.12 µM
[10] = HPLM + 10% dialyzed FBS, 15.4 µM
[11] = HPLM + 10% dialyzed FBS, 46.1 µM
[12] = RPMI 5 mM glucose + 10% FBS, 0.000781 µM
[13] = RPMI 5 mM glucose + 10% FBS, 0.00234 µM
[14] = RPMI 5 mM glucose + 10% FBS, 0.00702 µM
[15] = RPMI 5 mM glucose + 10% FBS, 0.0211 µM
[16] = RPMI 5 mM glucose + 10% FBS, 0.0632 µM
[17] = RPMI 5 mM glucose + 10% FBS, 0.19 µM
[18] = RPMI 5 mM glucose + 10% FBS, 0.569 µM
[19] = RPMI 5 mM glucose + 10% FBS, 1.71 µM
[20] = RPMI 5 mM glucose + 10% FBS, 5.12 µM
[21] = RPMI 5 mM glucose + 10% FBS, 15.4 µM
[22] = RPMI 5 mM glucose + 10% FBS, 46.1 µM
[23] = RPMI 5 mM glucose + 10% dialyzed FBS, 0.000781 µM
[24] = RPMI 5 mM glucose + 10% dialyzed FBS, 0.00234 µM
[25] = RPMI 5 mM glucose + 10% dialyzed FBS, 0.00702 µM
[26] = RPMI 5 mM glucose + 10% dialyzed FBS, 0.0211 µM
[27] = RPMI 5 mM glucose + 10% dialyzed FBS, 0.0632 µM
[28] = RPMI 5 mM glucose + 10% dialyzed FBS, 0.19 µM
[29] = RPMI 5 mM glucose + 10% dialyzed FBS, 0.569 µM
[30] = RPMI 5 mM glucose + 10% dialyzed FBS, 1.71 µM
[31] = RPMI 5 mM glucose + 10% dialyzed FBS, 5.12 µM
[32] = RPMI 5 mM glucose + 10% dialyzed FBS, 15.4 µM
[33] = RPMI 5 mM glucose + 10% dialyzed FBS, 46.1 µM

| SMILES | cell viability [1] [%] | cell viability [2] [%] | cell viability [3] [%] | cell viability [4] [%] | cell viability [5] [%] | cell viability [6] [%] | cell viability [7] [%] | cell viability [8] [%] | cell viability [9] [%] | cell viability [10] [%] | cell viability [11] [%] | cell viability [12] [%] | cell viability [13] [%] | cell viability [14] [%] | cell viability [15] [%] | cell viability [16] [%] | cell viability [17] [%] | cell viability [18] [%] | cell viability [19] [%] | cell viability [20] [%] | cell viability [21] [%] | cell viability [22] [%] | cell viability [23] [%] | cell viability [24] [%] | cell viability [25] [%] | cell viability [26] [%] | cell viability [27] [%] | cell viability [28] [%] | cell viability [29] [%] | cell viability [30] [%] | cell viability [31] [%] | cell viability [32] [%] | cell viability [33] [%] |
| --- | --- | --- | --- | --- | --- | --- | --- | --- | --- | --- | --- | --- | --- | --- | --- | --- | --- | --- | --- | --- | --- | --- | --- | --- | --- | --- | --- | --- | --- | --- | --- | --- | --- |
| CO[C@H]1CCC(O[C@H]2C[C@H]([C@]3(C)CC[C@]4(C[C@H](O)[C@@H](C)[C@@H]([C@@H](C)/C=C(\C)C(=O)[C@H](C)C[C@H](C)C(=O)[O-])O4)O3)O[C@]3(O[C@@H]([C@H]4O[C@@](O)(CO)[C@H](C)C[C@@H]4C)C[C@@H]3C)[C@@H]2C)O[C@@H]1C (stereo not given in full) | 120 | 124 | 119 | 118 | 111 | 106 | 87.3 | 80.2 | 48.8 | 35.7 | 21.5 | 124 | 113 | 106 | 113 | 111 | 103 | 99.7 | 73.1 | 44.2 | 28.9 | 22.7 | 118 | 120 | 109 | 119 | 120 | 119 | 108 | 88.8 | 39.7 | 25.3 | 27.1 |
| Cc1c(N)nc([C@H](CC(N)=O)NC[C@@H](N)C(N)=O)nc1C(=O)N[C@H](C(=O)N[C@@H](C)[C@H](O)[C@@H](C)C(=O)N[C@@H](C(=O)NCCc1nc(-c2nc(C(=O)NCCC[S+](C)C)cs2)cs1)[C@@H](C)O)C(O[C@H]1O[C@H](CO)[C@H](O)[C@@H](O)[C@H]1O[C@H]1O[C@H](CO)[C@@H](O)[C@H](OC(N)=O)[C@@H]1O)c1c[nH]cn1 (stereo not given in full) | 112 | 114 | 108 | 108 | 111 | 120 | 110 | 96.6 | 78 | 28.3 | 40.9 | 103 | 102 | 112 | 114 | 104 | 109 | 105 | 67.3 | 51.5 | 21.4 | 37 | 102 | 103 | 108 | 103 | 105 | 109 | 107 | 91.6 | 82.1 | 37.2 | 44.6 |
| Cc1cc(Nc2ncc3c(n2)N(C)C(=O)N(c2cc(NC(=O)c4cccc(C(F)(F)F)c4)ccc2C)C3)n(C)n1 | 116 | 114 | 117 | 120 | 119 | 120 | 114 | 90.4 | 79.3 | 55.8 | 7.23 | 106 | 120 | 124 | 123 | 133 | 115 | 105 | 73.5 | 66.5 | 52.5 | 5.53 | 111 | 119 | 116 | 132 | 124 | 122 | 111 | 76.1 | 72.1 | 50.9 | 5.1 |
| COc1cc(C(=O)NC2CCN(C)CC2)ccc1Nc1ncc2c(n1)N(C1CCCC1)CCC(=O)N2C(C)C | 104 | 102 | 103 | 110 | 109 | 110 | 85 | 109 | 79.2 | 26.3 | 4.5 | 107 | 103 | 95.1 | 112 | 108 | 116 | 89.6 | 114 | 73.4 | 42.7 | 5.67 | 98.1 | 104 | 111 | 110 | 111 | 106 | 92.3 | 107 | 71.2 | 54.1 | 6 |
| C[S+](=O)([O-])Oc1ccc2c(NC(N)=O)c(C(=O)c3ccc(Cl)cc3Cl)oc2c1 | 113 | 120 | 122 | 116 | 120 | 113 | 122 | 119 | 108 | 99.9 | 66.5 | 112 | 109 | 121 | 117 | 130 | 116 | 123 | 125 | 129 | 109 | 73.3 | 116 | 118 | 112 | 110 | 117 | 122 | 122 | 126 | 118 | 105 | 91.5 |
| CCCCCNC(=N)N/N=C/c1c[nH]c2ccc(OC)cc12 | 122 | 119 | 121 | 130 | 126 | 139 | 128 | 137 | 121 | 59.8 | 20.2 |  |  |  |  |  |  |  |  |  |  |  |  |  |  |  |  |  |  |  |  |  |  |
| CCOC(=O)N1CCN(/[N+]([O-])=N/Oc2cc(O/N=[N+](\[O-])N3CCN(C(=O)OCC)CC3)c([N+](=O)[O-])cc2[N+](=O)[O-])CC1 | 122 | 123 | 125 | 123 | 131 | 140 | 131 | 140 | 136 | 134 | 135 |  |  |  |  |  |  |  |  |  |  |  |  |  |  |  |  |  |  |  |  |  |  |
| Clc2cccc(Cl)c2\N=C1/NCCN1 | 109 | 115 | 71 | 123 | 116 | 123 | 120 | 120 | 116 | 122 | 121 | 109 | 120 | 73.8 | 121 | 127 | 130 | 137 | 126 | 135 | 126 | 123 | 95.8 | 115 | 80.2 | 113 | 115 | 121 | 120 | 120 | 112 | 124 | 124 |
| COc1cc(NCc2ccc3nc(N)nc(N)c3c2C)cc(OC)c1OC | 88.8 | 88.8 | 95.8 | 101 | 99 | 94.4 | 79.4 | 62.2 | 32.9 | 24.7 | 14.7 | 82.4 | 91.7 | 86.1 | 91.5 | 96.4 | 88.4 | 96.1 | 87.8 | 68.6 | 58.9 | 1.49 | 73.2 | 82.4 | 82.7 | 87.5 | 96.2 | 87.6 | 88.3 | 85.9 | 65.7 | 26.1 | 1.75 |
| COC1=CC=C(C=C1)/C2=C(O)/C(=O)C3=C(O)C=C(O)C(=C3O2)CC=C(C)C | 115 | 115 | 115 | 117 | 121 | 122 | 121 | 119 | 113 | 87.9 | 122 | 108 | 111 | 105 | 110 | 108 | 115 | 114 | 120 | 123 | 67 | 121 | 118 | 110 | 122 | 116 | 127 | 115 | 125 | 128 | 117 | 95.8 | 118 |
| COCCn1c2c([n+](Cc3cnccn3)c1C)C(=O)c1ccccc1C2=O | 116 | 115 | 113 | 112 | 104 | 51.4 | 41.9 | 15.8 | 5.02 | 2.55 | 1.1 | 110 | 108 | 118 | 106 | 112 | 48.9 | 17.6 | 6.76 | 3.92 | 3.27 | 2.14 | 113 | 108 | 112 | 110 | 106 | 51.4 | 11.7 | 5.22 | 3.6 | 2.56 | 1.9 |
| CCNC(=O)Nc1ccc(Oc2ncnc(N)c2/C=N/OC)cc1Cl | 107 | 114 | 107 | 116 | 123 | 119 | 119 | 118 | 106 | 101 | 120 | 111 | 113 | 117 | 117 | 121 | 128 | 126 | 121 | 117 | 111 | 131 | 106 | 116 | 119 | 122 | 124 | 123 | 118 | 122 | 119 | 107 | 107 |
| c1cc(-c2cnn3cc(-c4ccc(OCCN5CCCCC5)cc4)cnc23)ccn1 | 90.3 | 91.1 | 93.8 | 91.8 | 97 | 93.7 | 91.7 | 91.4 | 89.6 | 85.6 | 2.9 | 83.8 | 81.9 | 96.7 | 86.9 | 87.5 | 79 | 76 | 84.2 | 85.9 | 83.2 | 50.5 | 89.2 | 86.8 | 84.1 | 88.5 | 86.8 | 85.4 | 78.8 | 83.7 | 78.2 | 88 | 85.7 |
| OC1=CC=C(C=C1)C/2=C/C3=C(OC2)C=C(O)C=C3 | 109 | 91.7 | 111 | 117 | 109 | 116 | 104 | 80.2 | 19.8 | 2.76 | 1.12 | 108 | 121 | 123 | 110 | 126 | 111 | 107 | 88.2 | 24.3 | 1.45 | -0.00081 | 102 | 112 | 111 | 113 | 111 | 106 | 102 | 74.9 | 16.2 | 2.96 | 0.54 |
| COc1ccc(CCC(=O)c2c(O)cc(O[C@@H]3O[C@H](CO)[C@@H](O)[C@H](O)[C@H]3O[C@@H]3O[C@@H](C)[C@H](O)[C@@H](O)[C@H]3O)cc2O)cc1O | 115 | 117 | 116 | 110 | 119 | 116 | 117 | 113 | 107 | 107 | 38.8 |  |  |  |  |  |  |  |  |  |  |  | 105 | 115 | 118 | 116 | 108 | 114 | 111 | 113 | 107 | 106 | 105 |
